{"source": "patent US10265276B2", "about": "“Pharmaceutical composition for preventing or treating arthritis or inflammatory disease containing 2-methoxy-4-(3-(4-methoxyphenyl)propyl-1-en-1-yl)phenol as active ingredient” (CHUNGBUK NATIONAL UNIVERSITY INDUSTRY-ACADEMIC COOPERATION …, priority 2015, dated 2019)", "type_in_all_cases": "cell-based, mouse", "key": {"STAT3 [1]": {"test_system": "STAT3", "assay": "STAT3-luciferase activity assay in LPS-induced RAW 264.7 cells", "conditions": "concentration-dependent manner (0 to 4 mg/mL)", "procedure": "9. Cell infection: RAW 264.7 cells (5×10^4 cells/well) were added to a 24-well plate, and transiently infected with a STAT3-luciferase reporter plasmid and an iNOS-luciferase reporter plasmid using a Lipofectamine PLUS and plasmid mixture in OPTI-MEN.\n11. Luciferase activity assay: RAW264.7 cells added to a 24-well plate at a density of 1×10^5 cells/well. After 90% confluence, the cells were transiently infected with STAT3 siRNA (Santa Cruz Biotechnology) or a mutant STAT3 (T456A) plasmid using a mixture of STAT3 siRNA (Santa Cruz Biotechnology) or a mutant STAT3 (T456A) plasmid and WelFect-EX PLUS in OPTI-MEN. […] The luciferase activity was measured using a luciferase assay kit (Promega, Madison, Wis., USA).\nRAW 264.7 cells were transiently infected with a STAT3-luciferase construct, treated with LPS (1 μg/mL) alone or a combination of MMPP and LPS, and then activated for 12 hours. Thereafter, the luciferase activity, the ROS and PGE2 expression, and a level of pro-inflammatory cytokines were determined."}, "RAW 264.7 cells [2]": {"test_system": "RAW 264.7 cells", "assay": "Cell viability (MTT assay) in RAW 264.7 cells", "conditions": "up to 4 mg/mL", "procedure": "As mouse macrophages, RAW 264.7 macrophages were cultured in a DMEM medium supplemented with 10% FBS. […] of the medium was treated with MMPP, and then stabilized for an hour.\nAn MTT reagent was added at a concentration of 0.5 mg/mL, and the cells were cultured at 37° C. in an incubator. After the medium was completely removed when 70% of the cells formed crystals, […] of DMSO was added to dissolve the crystals. Subsequently, the optical density was measured at 550 nm.\nMorphological changes of the cells were observed under a microscope, and the cell viability was determined using an MTT assay."}, "RAW 264.7 cells [3]": {"test_system": "RAW 264.7 cells", "assay": "Nitrite assay (NO generation) in LPS-induced RAW 264.7 cells", "conditions": "LPS (1 µg/mL) and MMPP (0 to 4 µg/mL)", "procedure": "6. Nitrite assay: RAW 264.7 cells were added to a 96-well plate at a density of 1×10^4 cells/well, and LPS […] and TNF-α (10 ng/mL) were added or not added for 24 hours in the presence or absence of various concentrations of MMPP. Accumulation of nitrites in a supernatant was analyzed using a nitric oxide assay kit commercially available from iNtRON Biotechnology (Seongnam, Korea).\nIn Experimental Example 4, a luciferase activity assay was carried out to determine whether MMPP inhibited generation of LPS-induced infective factors in RAW 264.7 cells. RAW 264.7 cells were transiently infected with an iNOS-luciferase construct, treated with LPS (1 μg/mL) alone or a combination of MMPP and LPS, and then activated for 12 hours."}, "STAT3 [4]": {"test_system": "STAT3", "assay": "Effect of STAT3 siRNA or STAT3 inhibitor on the effect of MMPP in LPS-treated RAW 264.7 cells", "set-up": "dose or concentration left out as unconfirmed", "procedure": "11. Luciferase activity assay: RAW264.7 cells added to a 24-well plate at a density of 1×10^5 cells/well. After 90% confluence, the cells were transiently infected with STAT3 siRNA (Santa Cruz Biotechnology) or a mutant STAT3 (T456A) plasmid using a mixture of STAT3 siRNA (Santa Cruz Biotechnology) or a mutant STAT3 (T456A) plasmid and WelFect-EX PLUS in OPTI-MEN. The infected cells were treated with LPS (1 μg/mL) and different concentrations of MMPP (1 to 4 μg/mL) for 12 hours. The luciferase activity was measured using a luciferase assay kit (Promega, Madison, Wis., USA).\nFirst, a protective effect of MMPP on the LPS-induced pro-inflammatory response was tested using RAW 264.7 cells infected with STAT3 siRNA.\nThe RAW 264.7 cells were infected with STAT3 siRNA. After 24 hours, the infected cells were then treated with […] of LPS alone or in combination with MMPP. Thereafter, the NO generation, the iNOS and COX2 expression, and the DNA binding activity of NF-κB were measured.\nNext, it was examined whether an effect of a STAT3 inhibitor in RAW 264.7 cells was limited. RAW 264.7 cells were treated with a STAT3 inhibitor […] alone or in combination with MMPP, and the NO generation, the iNOS and COX2 expression, and the DNA binding activity of NF-κB were also measured."}, "NF-κB": {"test_system": "NF-κB", "assay": "EMSA and Western blotting of the NF-κB pathway in LPS-treated RAW 264.7 cells", "procedure": "10. EMSA assay (Electromobility shift assay): RAW 264.7 cells were cultured for 24 hours to perform an EMSA assay. The relative density of a protein band was scanned using MyImage, and qualitatively analyzed using Labworks 4.0 software (UVP, Inc.).\n12. Western blotting assay: A whole cell lysate, a cytosolic extract, and a nuclear extract were obtained. SDS-PAGE and Western blotting assays were carried out as disclosed in published Documents 1 and 2. Simply speaking, the cells were seeded in a 6-well plate at a density of 5×10^5 cells/well, and cultured for 24 hours. Thereafter, the cells were treated with MMPP or DMSO for 24 hours. After the treatment, the cells were washed twice with PBS, and then lyzed. Proteins of the lyzed cells were separated on 10 to 15% SDS-PAGE. The proteins were transferred to a PVDF membrane, and the PVDF membrane was blocked at room temperature for 2.5 hours in a TB S/T buffer containing 5% skim milk. The membrane to which the proteins were transferred was analyzed using, as primary antibodies, murine monoclonal antibodies against Cdk2, Cdk4, Cdk6, cyclin B1, cyclin D1, cyclin E1, Bcl-2, Bax, caspase-3, caspase-8, STAT3, phspho-STAT3, (3-actin, and histone hl. Expression of the proteins was visualized using a chemiluminescence reagent (Amersham Pharmacia Biotech, Inc., Buckinghamshire, UK), and measured using a digital chemiluminescence imaging system equipped with a CCD camera (Fusion-FX, Fisher BioTech, Ltd., Wembley, Australia).\nRAW 264.7 cells were treated with LPS alone or a combination of LPS and MMPP for 30 minutes, and the DNA binding activities of NF-κB and STAT3 were examined using an electrophoretic mobility shift assay (EMSA). Also, the same amount of the total proteins (20 μg/Lane) was subjected to 10% SDS-PAGE, and STAT3, P-STAT3, p50, p65, IKK, lκB, and p-lκB were detected through Western blotting. A (3-actin protein or histone H was used as the control."}, "[5]": {"conditions": "LPS-induced, co-treated with MMPP"}}, "note": "Read-outs that look alike come from different tables or passages of the source."}
{"smiles": "COc1ccc(C/C=C/c2ccc(O)c(OC)c2)cc1", "note": "[MMPP, 2-methoxy-4-(3-(4-methoxyphenyl)prop-1-en-1-yl)phenol]", "values": [{"measurement": "LPS-induced STAT3 luciferase activity", "setting": "STAT3 [1]", "result": "inhibited"}, {"measurement": "toxicity", "setting": "RAW 264.7 cells [2]; RAW 264.7 cells", "result": "no toxicity"}, {"measurement": "viability of the LPS-induced RAW 264.7 cells", "setting": "RAW 264.7 cells [2]", "result": "not affected"}, {"measurement": "NO generation", "setting": "RAW 264.7 cells [3]", "result": "reduced in a concentration-dependent manner"}, {"measurement": "inhibitory effect of MMPP on LPS-induced NO generation, iNOS and COX2 expression, and NF-κB activity", "setting": "STAT3 [4]", "result": "completely limited"}, {"measurement": "inhibitory effect of MMPP on LPS-induced NO generation, iNOS and COX2 expression, and NF-κB activity", "setting": "STAT3 [4]; STAT3 knock-down cells (STAT3 siRNA)", "result": "limited"}, {"measurement": "LPS-induced phosphorylation of IKKb and IKKa", "setting": "NF-κB", "result": "inhibited"}, {"measurement": "DNA binding activity and transcriptional activity of NF-κB", "setting": "NF-κB; [5]", "result": "reduced in a concentration-dependent manner"}, {"measurement": "IκB degradation", "setting": "NF-κB; [5]", "result": "reduced in a concentration-dependent manner"}, {"measurement": "nuclear translocation of NF-κB subunits p65 and p50", "setting": "NF-κB; [5]", "result": "reduced in a concentration-dependent manner"}]}
